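96-well plates; 48 h exposure; 5 concentrations. Endpoints by linear interpolation between flanking doses. Not reached: highest tested concentration assigned. GI50 = concentration required for 50% inhibition of growth. TGI denotes the concentration required for complete inhibition of growth.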
Columns and labels:
Test in all cases: NCI-60 cell line screen, 48 h
786-0 renal = system: 786-0 renal
A498 renal = system: A498 renal
A549 NSCLC = system: A549 NSCLC
ACHN renal = system: ACHN renal
BT-549 breast = system: BT-549 breast
CAKI-1 renal = system: CAKI-1 renal
CCRF-CEM leukemia = system: CCRF-CEM leukemia
COLO 205 colon = system: COLO 205 colon
DU-145 prostate = system: DU-145 prostate
EKVX NSCLC = system: EKVX NSCLC
HCC-2998 colon = system: HCC-2998 colon
HCT-116 colon = system: HCT-116 colon
HCT-15 colon = system: HCT-15 colon
HL-60(TB) leukemia = system: HL-60(TB) leukemia
HOP-62 NSCLC = system: HOP-62 NSCLC
HOP-92 NSCLC = system: HOP-92 NSCLC
HS 578T breast = system: HS 578T breast
HT29 colon = system: HT29 colon
IGROV1 ovarian = system: IGROV1 ovarian
K-562 leukemia = system: K-562 leukemia
KM12 colon = system: KM12 colon
LOX IMVI melanoma = system: LOX IMVI melanoma
M14 melanoma = system: M14 melanoma
MALME-3M melanoma = system: MALME-3M melanoma
MCF7 breast = system: MCF7 breast
MDA-MB-231 breast = system: MDA-MB-231 breast
MDA-MB-435 = system: MDA-MB-435
MOLT-4 leukemia = system: MOLT-4 leukemia
NCI-H226 lung = system: NCI-H226 lung
NCI-H23 lung = system: NCI-H23 lung
NCI-H460 lung = system: NCI-H460 lung
NCI-H522 lung = system: NCI-H522 lung
NCI/ADR-RES ovarian = system: NCI/ADR-RES ovarian
OVCAR-3 ovarian = system: OVCAR-3 ovarian
OVCAR-4 ovarian = system: OVCAR-4 ovarian
OVCAR-5 ovarian = system: OVCAR-5 ovarian
OVCAR-8 ovarian = system: OVCAR-8 ovarian
PC-3 prostate = system: PC-3 prostate
RPMI-8226 leukemia = system: RPMI-8226 leukemia
RXF 393 renal = system: RXF 393 renal
SF-268 CNS = system: SF-268 CNS
SF-295 CNS = system: SF-295 CNS
SF-539 CNS = system: SF-539 CNS
SK-MEL-2 melanoma = system: SK-MEL-2 melanoma
SK-MEL-28 melanoma = system: SK-MEL-28 melanoma
SK-MEL-5 melanoma = system: SK-MEL-5 melanoma
SK-OV-3 ovarian = system: SK-OV-3 ovarian
SN12C renal = system: SN12C renal
SNB-19 CNS = system: SNB-19 CNS
SNB-75 CNS = system: SNB-75 CNS
SR leukemia = system: SR leukemia
SW-620 colon = system: SW-620 colon
T-47D breast = system: T-47D breast
TK-10 renal = system: TK-10 renal
U251 CNS = system: U251 CNS
UACC-257 melanoma = system: UACC-257 melanoma
UACC-62 melanoma = system: UACC-62 melanoma
UO-31 renal = system: UO-31 renal

Compound `COc1cc2c(cc1OCCCN1CCN(C(=S)SCCC(C#N)(c3ccccc3)c3ccccc3)CC1)N=C[C@@H]1CCCN1C2=O` has a GI50 (786-0 renal) of 493 nM, a TGI (786-0 renal) of 1080 nM and a GI50 (A498 renal) of 1000 nM. The TGI (A498 renal) was 2320 nM, the GI50 (A549 NSCLC) was 1250 nM and the TGI (A549 NSCLC) was 7360 nM. It also gave a GI50 (ACHN renal) of 875 nM, a TGI (ACHN renal) of 2120 nM and a GI50 (BT-549 breast) of 1070 nM. The TGI (BT-549 breast) was 3790 nM, the GI50 (CAKI-1 renal) was 357 nM and the TGI (CAKI-1 renal) was 1480 nM. It also gave a GI50 (CCRF-CEM leukemia) of 235 nM, a TGI (CCRF-CEM leukemia) of 537 nM and a GI50 (COLO 205 colon) of 1300 nM. For the same compound, the TGI (COLO 205 colon) was 2780 nM, the GI50 (DU-145 prostate) was 469 nM and the GI50 (EKVX NSCLC) was 2170 nM. It also gave a TGI (EKVX NSCLC) of 5270 nM, a GI50 (HCC-2998 colon) of 1510 nM and a TGI (HCC-2998 colon) of 2940 nM. It also gave a GI50 (HCT-116 colon) of 388 nM, a TGI (HCT-116 colon) of 1560 nM and a GI50 (HCT-15 colon) of 1680 nM. For the same compound, the TGI (HCT-15 colon) was 3480 nM, the GI50 (HL-60(TB) leukemia) was 876 nM and the GI50 (HOP-62 NSCLC) was 121 nM. For the same compound, the TGI (HOP-62 NSCLC) was 456 nM, the GI50 (HOP-92 NSCLC) was 545 nM and the TGI (HOP-92 NSCLC) was 3850 nM. The GI50 (HS 578T breast) was 560 nM, the TGI (HS 578T breast) was 3680 nM and the GI50 (HT29 colon) was 944 nM. For the same compound, the TGI (HT29 colon) was > 20700 nM, the GI50 (IGROV1 ovarian) was 381 nM and the TGI (IGROV1 ovarian) was 1740 nM. It also gave a GI50 (K-562 leukemia) of 573 nM, a GI50 (KM12 colon) of 1640 nM and a GI50 (LOX IMVI melanoma) of 721 nM. For the same compound, the TGI (LOX IMVI melanoma) was 2030 nM, the GI50 (M14 melanoma) was 1170 nM and the TGI (M14 melanoma) was 2670 nM. The GI50 (MALME-3M melanoma) was 938 nM, the TGI (MALME-3M melanoma) was 2190 nM and the GI50 (MCF7 breast) was 330 nM. For the same compound, the TGI (MCF7 breast) was 1530 nM, the GI50 (MDA-MB-231 breast) was 1320 nM and the TGI (MDA-MB-231 breast) was 3190 nM. The GI50 (MDA-MB-435) was 555 nM, the TGI (MDA-MB-435) was 2940 nM and the GI50 (MOLT-4 leukemia) was 375 nM. It also gave a GI50 (NCI-H226 lung) of 1510 nM, a TGI (NCI-H226 lung) of 3150 nM and a GI50 (NCI-H23 lung) of 1070 nM. It also gave a TGI (NCI-H23 lung) of 2700 nM, a GI50 (NCI-H460 lung) of 891 nM and a GI50 (NCI-H522 lung) of 523 nM. For the same compound, the TGI (NCI-H522 lung) was 2430 nM, the GI50 (NCI/ADR-RES ovarian) was 3690 nM and the TGI (NCI/ADR-RES ovarian) was > 51500 nM. It also gave a GI50 (OVCAR-3 ovarian) of 488 nM, a TGI (OVCAR-3 ovarian) of 1260 nM and a GI50 (OVCAR-4 ovarian) of 2150 nM. The TGI (OVCAR-4 ovarian) was > 43700 nM, the GI50 (OVCAR-5 ovarian) was 1140 nM and the TGI (OVCAR-5 ovarian) was 2440 nM. For the same compound, the GI50 (OVCAR-8 ovarian) was 1310 nM, the TGI (OVCAR-8 ovarian) was > 48300 nM and the GI50 (PC-3 prostate) was 1450 nM. The TGI (PC-3 prostate) was > 100000 nM, the GI50 (RPMI-8226 leukemia) was 420 nM and the GI50 (RXF 393 renal) was 192 nM. The TGI (RXF 393 renal) was 360 nM, the GI50 (SF-268 CNS) was 386 nM and the GI50 (SF-295 CNS) was 1110 nM. It also gave a TGI (SF-295 CNS) of 3810 nM, a GI50 (SF-539 CNS) of 1450 nM and a TGI (SF-539 CNS) of 3370 nM. For the same compound, the GI50 (SK-MEL-2 melanoma) was 1080 nM, the TGI (SK-MEL-2 melanoma) was 2910 nM and the GI50 (SK-MEL-28 melanoma) was 1650 nM. For the same compound, the TGI (SK-MEL-28 melanoma) was 3070 nM, the GI50 (SK-MEL-5 melanoma) was 1310 nM and the TGI (SK-MEL-5 melanoma) was 2750 nM. For the same compound, the GI50 (SK-OV-3 ovarian) was 2520 nM, the TGI (SK-OV-3 ovarian) was 6390 nM and the GI50 (SN12C renal) was 820 nM. For the same compound, the TGI (SN12C renal) was 2500 nM, the GI50 (SNB-19 CNS) was 2190 nM and the GI50 (SNB-75 CNS) was 1310 nM. It also gave a TGI (SNB-75 CNS) of 2900 nM, a GI50 (SR leukemia) of 431 nM and a GI50 (SW-620 colon) of 514 nM. For the same compound, the TGI (SW-620 colon) was 1940 nM, the GI50 (T-47D breast) was 1580 nM and the GI50 (TK-10 renal) was 1090 nM. The TGI (TK-10 renal) was 2870 nM, the GI50 (U251 CNS) was 405 nM and the TGI (U251 CNS) was 1430 nM. The GI50 (UACC-257 melanoma) was 1990 nM, the TGI (UACC-257 melanoma) was 3900 nM and the GI50 (UACC-62 melanoma) was 1130 nM. It also gave a TGI (UACC-62 melanoma) of 2380 nM, a GI50 (UO-31 renal) of 1100 nM and a TGI (UO-31 renal) of 2320 nM.

From PubChem BioAssay (NCI)
